Experimental data: US20240000868A1, “Composition Containing Bifidobacterium Lactis and Human Milk Oligosaccharides and Application Thereof” (Inner Mongolia Yili Industrial Group Co., Ltd., priority 2020, published 2024)

System: Staphylococcus aureus ATCC25923
Assay: Disc diffusion test of inhibition zone
Format: cell-based
Settings: HN019 1×10^8 CFU; gentamicin 200 μg/mL; 37° C., 18 hours
Description: Discs were prepared with sterile filter paper, the test substances HMO (10 mg/mL, 30 mg/mL) or probiotic (1×10^8 CFU) were introduced thereto, and the discs were dried overnight under sterile conditions. Staphylococcus aureus ATCC25923 (1.0×10^6 CFU/mL) was uniformly applied on the surface of an NGM agar plate, and then the discs were placed on the surface of the inoculated agar plate. Gentamicin (200 μg/mL) was used as a positive control. All plates were incubated at 37° C. for 18 hours.

For Gentamicin, the “transparent inhibition zone around disc (direct antibacterial effect)” value was “formation of a transparent inhibition zone”.
